# Data reported in patent US9826740B2, “Synergistic fungicidal compositions and methods of use” (ZELAM LIMITED, priority 2010, dated 2017).
# Where “and” joins values, the source holds several entries; their conditions need not be identical. Equal entries are not always repeated.
# Experiments:
# [1] = cited from earlier work
# Coniophora puteana = assay: Rot jar test of glueline treated Pinus radiata plywood (AWPC 2007); conditions: Example 10, glueline rate giving 50% inhibition of weight loss, regression
# Experimental: (§1) The end points used were EC90 or EC50, the concentration producing 90% or 50% inhibition of growth or weight loss resulting from fungal growth. EC values were calculated by regression analysis of dose response data using the GraphPad Prism software package (GraphPad Software, Inc., 5755 Oberlin Drive #110, San Diego, Calif. 92121, USA). EC90 values are expressed in ppm and EC50 values are expressed in gai/m^3.
# Efficacy as a glueline fungicide was tested in plywood manufactured with phenol formaldehyde (PF), a typical resin used in engineered wood products. The wood type was Pinus radiata sapwood, which, like many softwoods, is rapidly degraded by decay organisms, if not protected. […]
# (§2) In order to examine the interaction between triadimefon and cyproconazole in the glueline a synergy trial was performed using plywood manufactured with fungicide-supplemented PF resin and the rot jar method described above. Six glueline rates (expressed as gai/m^3) of triadimefon alone, cyproconazole alone, triadimefon+cyproconazole (10:1) and triadimefon+cyproconazole (6:1) were used to establish EC50 values by regression analysis. Synergy was determined by the Wadley method as described above using the EC50 values. […]
# Tyromyces palustris = assay: as above; conditions: leached, three month rot jar
# Experimental: (§3) Efficacy as a glueline fungicide was tested in plywood manufactured with phenol formaldehyde (PF), a typical resin used in engineered wood products. The wood type was Pinus radiata sapwood, which, like many softwoods, is rapidly degraded by decay organisms, if not protected. Five 3.2 mm rotary-peeled veneers were laid up with fungicide-containing PF resin at a typical commercial glue spread rate (250 g/m^2), cold pressed for 10 minutes then hot pressed for 12 minutes at 135° C. and […]. Test specimens (25 mm×25 mm×16 mm) were cut, then leached for 14 days according to EN 84 before conducting a three month “rot jar test” as specified by the Australasian Wood Preservation Committee (Laboratory Decay Test for Hazard Classes H3, H4 and H5, AWPC, 2007). Untreated controls contained no fungicide.
# Plywood was manufactured following the procedure in Example 7 using triadimefon and triadimenol as the glueline fungicides and tested by the rot jar method after leaching. […]
# Antrodia xantha = assay: as above; conditions: Example 9, glueline rate giving 50% inhibition of weight loss, six rates, regression
# Experimental: as §1, §3
# (§4) Plywood was manufactured following the procedure in Example 7 using triadimefon and triadimenol as the glueline fungicides and tested by the rot jar method after leaching.
# (§5) In order to examine the interaction between triadimefon and cyproconazole in the glueline a synergy trial was performed using plywood manufactured with fungicide-supplemented PF resin and the rot jar method described above. Six glueline rates (expressed as gai/m^3) of triadimefon alone, cyproconazole alone, triadimefon+cyproconazole (10:1) and triadimefon+cyproconazole (6:1) were used to establish EC50 values by regression analysis. Synergy was determined by the Wadley method as described above using the EC50 values.
# (§6) Plywood 29 mm thick was manufactured from seven 4.3 mm rotary peeled Pinus radiata sapwood veneers using PF resin supplemented with various rates of triadimefon plus cyproconazole at a 10:1 ratio. […] The finished plywood was then sprayed with the same mixtures to cover the top and bottom faces of the plywood. Test specimens (25 mm×25 mm×29 mm) were cut, leached and tested by the rot jar method as described in Example 7.
# [2] = tested on: Fomitopsis lilacino-gilva; assay: as above; conditions: for Percentage weight loss: leached, three month rot jar
# Experimental: as §1, §3, §4, §5, §6
# [3] = tested on: Coniophora puteana (Brown rot); assay: Malt extract agar plate growth inhibition; type: cell-based; conditions: Example 6, 8 days growth
# Experimental: as §1, with “gai/m^3. […]” for “gai/m^3.”
# [4] = tested on: Antrodia xantha (Brown rot); assay: Malt extract agar plate growth inhibition; type: cell-based
# Experimental: as §1, with “gai/m^3. […]” for “gai/m^3.”
# Serpula lacrymans = assay: Rot jar test of glueline treated Pinus radiata plywood (AWPC 2007); conditions: for Percentage weight loss: leached, three month rot jar
# Experimental: as §1, §3, §2
# [5] = tested on: Serpula lacrymans (Dry rot); assay: Malt extract agar plate growth inhibition; type: cell-based
# Experimental: as §1, with “gai/m^3. […]” for “gai/m^3.”
# (§7) Further EC90 values were determined for this example in a standard manner.
# [6] = tested on: Tyromyces palustris (Brown rot); assay: Malt extract agar plate growth inhibition; type: cell-based; conditions: Example 5, 4 days growth
# Experimental: as §1, with “gai/m^3. […]” for “gai/m^3.”
# as §7
# [7] = tested on: Poria placenta (Brown rot); assay: Malt extract agar plate growth inhibition; type: cell-based
# Experimental: as §1, with “gai/m^3. […]” for “gai/m^3.”
# as §7
# [8] = tested on: Pycnoporus coccineus (White rot); assay: Malt extract agar plate growth inhibition; type: cell-based
# Experimental: as §1, with “gai/m^3. […]” for “gai/m^3.”
# as §7
# [9] = tested on: Gloeophyllum abietinum (Brown rot); assay: Malt extract agar plate growth inhibition; type: cell-based; conditions: Example 5, 7 days growth
# Experimental: as §1, with “gai/m^3. […]” for “gai/m^3.”
# as §7
# [10] = tested on: Trametes versicolor (White rot); assay: Malt extract agar plate growth inhibition; type: cell-based; conditions: Example 4, 5 days at 25° C.
# Experimental: as §1
# (§8) Decay fungi were grown on malt extract agar plates for 5 days at 25° C. in the presence of triadimefon alone or triadimenol alone (A), cyproconazole alone (B), and the pairs of mixtures shown in Table 2.
# [11] = tested on: Fomitopsis lilacino-gilva (Brown rot); assay: Malt extract agar plate growth inhibition; type: cell-based; conditions: Example 4, 5 days at 25° C.
# Experimental: as §1, §8
# [12] = 20° C.; cited from earlier work
# [13] = 20° C.; cited from earlier work; remark: listed apart in the source
# [14] = Example 7, glueline 62.5 gai/m3, PF plywood
# [15] = Example 7, glueline 125 gai/m3, PF plywood
# [16] = Example 7, glueline 250 gai/m3, PF plywood
# [17] = Example 7, glueline 500 gai/m3, PF plywood
# [18] = Example 9, glueline rate giving 50% inhibition of weight loss, six rates, regression
smiles,measurement,setting,value
CC(C1CC1)C(O)(Cn1cncn1)c1ccc(Cl)cc1 (racemic) [Cyproconazole],Stability in water,[1]; pH 1,Stable in water 35 d
same,EC50(obs),Coniophora puteana,345 gai/m^3
same,Percentage weight loss,Tyromyces palustris; [14],25.0%
same,Percentage weight loss,Tyromyces palustris; [15],16.0%
same,Percentage weight loss,Tyromyces palustris; [16],17.1%
same,Percentage weight loss,Tyromyces palustris; [17],4.3%
same,EC50(obs),Antrodia xantha,84 gai/m^3
same,Percentage weight loss,[2]; [14],7.6%
same,Percentage weight loss,[2]; [15],4.1%
same,Percentage weight loss,[2]; [16],2.7%
same,Percentage weight loss,[2]; [17],0.8%
same,EC50(obs),[2]; [18],10 gai/m^3
same,EC90(obs),[3],1.93 ppm
same,EC90(obs),"[4]; Example 4, 5 days at 25° C.",0.19 ppm
same,EC90(obs),"[4]; Example 6, 8 days growth",0.46 ppm
same,Percentage weight loss,Serpula lacrymans; [14],38.0%
same,Percentage weight loss,Serpula lacrymans; [15],38.0%
same,Percentage weight loss,Serpula lacrymans; [16],37.9%
same,Percentage weight loss,Serpula lacrymans; [17],29.6%
same,EC50(obs),Serpula lacrymans; [18],465 gai/m^3
same,EC90(obs),"[5]; Example 5, 5 days growth",1.60 ppm
same,EC90(obs),"[5]; Example 6, 8 days growth",1.32 ppm
same,EC90(obs),[6],0.68 ppm
same,EC90(obs),"[7]; Example 5, 5 days growth",0.92 ppm
same,EC90(obs),"[7]; Example 6, 6 days growth",0.36 ppm
same,EC90(obs),"[8]; Example 5, 4 days growth",0.17 ppm
same,EC90(obs),"[8]; Example 6, 6 days growth",0.14 ppm
same,EC90(obs),[9],0.25 ppm
same,EC90(obs),[10],0.30 ppm and 0.19 ppm
same,EC90(obs),[11],0.12 ppm
CC(C)(C)C(O)(CCc1ccc(Cl)cc1)Cn1cncn1 (racemic) [Tebuconazole],"Stability, hydrolysis DT50",[1]; pH 4-9,DT50 >1 y pH 4-9
same,Sol. DCM,[12],>200 g/L (20° C.)
same,Sol. hexane,[12],<0.1 g/L (20° C.)
same,Sol. toluene,[12],50-100 g/L (20° C.)
same,Sol. Water,[13],36 mg/L (20° C.)
